From patent US5449680A, “2,2 disubstituted glycerol and glycerol-like compounds, compositions and methods of use” (Schering Corporation, priority 1992, dated 1995)

Tested on: PAF-induced platelet aggregation
Assay: PAF-induced platelet aggregation in human platelet-rich plasma (PRP), in vitro PAF antagonism assay
Format: cell-based
Conditions: 37° C, 2 min preincubation, PAF 1-5×10^-8 M, read-out: Percent Inhibition
Protocol: These test procedures are standard tests used to determine PAF antagonistic activity and to evaluate the usefulness of said compounds for counteracting the biological effects of PAF. The in vitro assay is a simple screening test, while the in vivo test mimics clinical use of the compounds described herein.
Preparation of platelet-rich plasma (PRP): Human blood (50 ml) was collected from healthy male donors in an anticoagulant solution (5 ml) containing sodium citrate (3.8%) and dextrose (2%). Blood was centrifuged at 110× g for 15 min. and the supernatant (PRP) carefully transferred into a polypropylene tube. Platelet-poor-plasma (PPP) was prepared by centrifuging PRP at 12,000× g for 2 min. (Beckman Microfuge B). PRP was used within 3 hours of drawing the blood.
Platelet Aggregation Assay: When an aggregating agent such as PAF is added to PRP, platelets aggregate. An aggregometer quantifies this aggregation by measuring light transmission through PRP and comparing to PPP. The aggregation assays were performed using a dual channel aggregometer (Model 440, Chrono-Log Corp., Havertown, Penn.). PRP (0.45 ml)in aggregometer cuvettes was continually stirred (37° C). Solutions of test compounds or vehicle were added to the PRP, and after incubation for 2 min., 10-15 […] aliquots of PAF solution were added so as to achieve a final concentration of 1-5×10^-8 M. Incubations were continued until the increase in light transmission reached a maximum (usually 2 min). Values for inhibition were calculated by comparing maximal aggregation obtained in the absence and the presence of the compound. For each experiment, a standard PAF antagonist such as alprazolam was used as a positive internal control. The inhibitory concentration (IC50)is the concentration of compound in micromoles at which 50% of the aggregation is inhibited, as measured by the light transmission through each sample of PRP as compared to PPP.

Row | Compound | inhibition at 50 µM | further results
1 | CCCCCCCCCCCCCCCCCCN(C)C(=O)OCC(C)(COCCCCCCC[N+]1(C)CCSC1)OC (centres unmarked) | – | inhibition at 10 µM: 93%
2 | CCCCCCCCCCCCCCCCCCN(C)C(=O)OCC(C)(COP(=O)([O-])OCC[n+]1ccccc1)OC (centres unmarked) | 43% | –
3 | CCCCCCCCCCCCCCCCCCN(C)C(=O)OCC(C)(CNC(=O)OCC[N+](C)(C)C)OC (centres unmarked) | 83% | –
4 | CCCCCCCCCCCCCCCCOCC(C)(COC(=O)OCC[N+]1(C)CCCC1)OC (centres unmarked) | 32% | –
5 | CCCCCCCCCCCCCCCCCCN(C)C(=O)OCC(C)(COC(=O)NCC[N+](C)(C)C)OC (centres unmarked) | 67% | –
6 | CCCCCCCCCCCCCCCCCCN(C)C(=O)OCC(C)(COCCCCCCCn1cnc(CC(=O)OCc2ccccc2)c1)OC (centres unmarked) | 19% | –
7 | CCCCCCCCCCCCCCCCCCN(C)C(=O)OCC(C)(COCc1ccc(C[n+]2ccsc2)cc1)OC (centres unmarked) | 100% | –
8 | CCCCCCCCCCCCCCCCCCN(C)C(=O)OCC(C)(COCCCCCCCOC(=O)C(N)CSC)OC (centres unmarked) | 28% | –
9 | CCCCCCCCCCCCCCCCOCC(C)(COC(=O)OCC[N+](C)(C)C)OC (centres unmarked) | – | inhibition at 100 µM (Dose 100 μM): 100%
10 | CCCCCCCCCCCCCCCCCCNC(=O)OCC(C)(COP(=O)([O-])OCC[n+]1ccsc1)OC (centres unmarked) | – | inhibition at 10 µM: 50%
11 | CCCCCCCCCCCCCCCCCCN(C)C(=O)OCC(C)(COCCCCCCCn1ccnc1N)OC (centres unmarked) | 17% | –
12 | CCCCCCCCCCCCCCCCCCN(C)C(=O)OCC(C)(CC)COCCCCCCC[n+]1ccsc1 (centres unmarked) | 100% | –
13 | CCCCCCCCCCCCCCCCCCN(C)C(=O)OCC(C)(COCCCCCCCN1CCSC1)OC (centres unmarked) | 10% | –
14 | CCCCCCCCCCCCCCCCCCN(C)C(=O)OCC(C)(COCCCCCCC[n+]1ccsc1)[S+](C)[O-] (centres unmarked) | 100% | –
15 | CCCCCCCCCCCCCCCCCCN(C)C(=O)OCC(CC)(COP(=O)([O-])OCC[n+]1ccsc1)OC (centres unmarked) | 100% | –
16 | CCCCCCCCCCCCCCCCCCN(C)C(=O)OCC(C)(COCCCCCCCOC(=O)C1CSCN1)OC (centres unmarked) | 3% | –
17 | CCCCCCCCCCCCCCCCCCN(C)C(=O)OCC(C)(COCCCCCCC[n+]1ccsc1)SC (centres unmarked) | 100% | –
18 | CCCCCCCCCCCCCCCCCCN(C)C(=O)OCC(C)(COC(=O)NCCCCC[n+]1ccsc1)OC (centres unmarked) | 100% | –

Row | Compound | inhibition at 50 µM | further results
19 | CCCCCCCCCCCCCCCCCCN(C)C(=O)OCC(CC)(COP(=O)(O)OCCn1ccnc1)OC (centres unmarked) | 23% | –
20 | CC(COCc1ccc(CN2CCSC2=N)cc1)(COC(=O)Nc1ccccc1)S(C)(=O)=O (centres unmarked) | 90% | –
21 | CCCCCCCCCCCCCCCCCCN(C)C(=O)OCC(C)(COC(=O)NCC[n+]1ccsc1)OC (centres unmarked) | 97% | –
22 | COC(C)(COCCCCCCCN1CCSC1=N)COC(=O)Nc1ccc(F)cc1F (centres unmarked) | 91% | –
23 | CCCCCCCCCCCCCCCCCCN(C)C(=O)OCC(C)(CNS(=O)(=O)CCn1ccnc1)OC (centres unmarked) | 12% | –
24 | CCCCCCCCCCCCCCCCCCN(C)C(=O)OCC(C)(COC(=O)N(CC[n+]1ccccc1)C(C)=O)OC (centres unmarked) | – | inhibition at 10 µM: 100%
25 | CCCCCCCCCCCCCCCCCCN(C)C(=O)OCC(C)(COCCCCCCCn1cc[n+](C)c1)OC (centres unmarked) | – | inhibition at 10 µM: 93%
26 | CCCCCCCCCCCCCCCCCCN(C)C(=O)OCC(C)(COCCCCCCCn1cnc(CC(=O)O)c1)OC (centres unmarked) | 19% | –
27 | CCCCCCCCCCCCCCCCCCN(C)C(=O)OCC(C)(COP(=O)([O-])OCC[n+]1ccsc1)OC (centres unmarked) | – | inhibition at 5 µM (Dose 5 μM): 50%
28 | CCCCCCCCCCCCCCCCOCC(C)(COC(=O)NCC[n+]1ccsc1)OC (centres unmarked) | 44% | –
29 | CCCCCCCCCCCCCCCCCCN(C)C(=O)OCC(C)(COCCCCCCC[n+]1ccsc1)OC (centres unmarked) | 100% | –
30 | CCCCCCCCCCCCCCCCCCN(C)C(=O)OCC(C)(COCCCCCCC[n+]1ccsc1)S(C)(=O)=O (centres unmarked) | 100% | –
31 | CCCCCCCCCCCCCCCCCCN(C)C(=O)OCC(COP(=O)([O-])OCC[n+]1ccsc1)(OC)C(C)C (centres unmarked) | 100% | –
32 | CCCCCCCCCCCCCCCCCCN(C)C(=O)OCC(C)(CNC(=O)OCC[n+]1ccccc1)OC (centres unmarked) | 100% | –
33 | CCCCCCCCCCCCCCCCOCC(C)(COC(=O)OCC[n+]1ccccc1)OC (centres unmarked) | 68% | –
34 | COC(C)(COCCCCCCC[n+]1ccsc1)COC(=O)Nc1ccccc1 (centres unmarked) | 100% | –
35 | CCCCCCCCCCCCCCCCCCN(C)C(=O)OCC(C)(COCCCC[n+]1ccsc1)OC (centres unmarked) | – | inhibition at 10 µM: 100%
